These compounds were tested against T1, CDK8 (CDK8/CycC) (Homo sapiens, UniProt P49336) (assay: FRET based Lanthascreen binding competition assay). Conditions: 5 nM CDK8/CycC, 10 nM Alexa647-Tracer, 1% DMSO, 60 min at RT; read-out: IC50 CDK8 binding.
T1 construct: purchased Invitrogen PV4402
Procedure, shortened: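 CDK8 co-expressed with CycC and labelled through biotinylated anti-His antibody and streptavidin-Eu was preincubated with compound for 20 min at RT. An Alexa647 ATP-competitive probe was then added for 60 min at RT in the dark. Probe displacement was read as loss of TR-FRET (excitation 340 nm, emission 650 nm).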

T1 sequence (P49336 whole entry): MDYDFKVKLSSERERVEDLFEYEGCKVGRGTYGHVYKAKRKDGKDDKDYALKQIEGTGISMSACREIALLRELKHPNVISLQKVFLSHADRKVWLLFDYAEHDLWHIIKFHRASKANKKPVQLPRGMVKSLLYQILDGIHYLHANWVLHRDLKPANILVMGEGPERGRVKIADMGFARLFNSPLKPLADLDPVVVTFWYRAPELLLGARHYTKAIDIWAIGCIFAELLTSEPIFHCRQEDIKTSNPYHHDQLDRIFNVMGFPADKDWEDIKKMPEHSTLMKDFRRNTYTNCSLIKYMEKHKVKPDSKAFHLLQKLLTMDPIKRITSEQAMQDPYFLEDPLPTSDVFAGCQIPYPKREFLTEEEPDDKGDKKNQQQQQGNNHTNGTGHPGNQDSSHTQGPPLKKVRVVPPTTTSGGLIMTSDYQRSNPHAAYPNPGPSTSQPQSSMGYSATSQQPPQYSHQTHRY
T1 sequence (P24863 whole entry partner): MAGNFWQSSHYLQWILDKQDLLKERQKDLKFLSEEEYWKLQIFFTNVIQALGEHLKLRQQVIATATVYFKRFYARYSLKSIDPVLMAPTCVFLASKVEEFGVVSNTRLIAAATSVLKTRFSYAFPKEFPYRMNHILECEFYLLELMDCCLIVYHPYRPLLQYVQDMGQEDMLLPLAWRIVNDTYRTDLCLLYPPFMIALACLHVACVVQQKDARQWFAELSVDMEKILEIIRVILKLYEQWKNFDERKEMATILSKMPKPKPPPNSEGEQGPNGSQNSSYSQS

SMILES | IC50 [nM]
O=C(c1ccc2cnccc2n1)N1CCC[C@H]1c1ccccc1 [Compound 54, (S)-(1,6-naphthyridin-2-yl)(2-phenylpyrrolidin-1-yl)methanone] | 10 to 100
Nc1ncc(-c2ccc3c(c2)CS(=O)(=O)N3)c2nc(C(=O)N3CCC(F)(F)C3)ccc12 [Compound 50, (5-Amino-8-(2,2-dioxido-1,3-dihydrobenzo[c]isothiazol-5-yl)-1,6-naphthyridin-2-yl)(3,3-difluoropyrrolidin-1-yl)methanone] | 10 to 100
CNC(=O)c1nc2c(-c3ccc4c(c3)CS(=O)(=O)N4C)cncc2cc1C [Compound 12, 3-Methyl-8-(1-methyl-2,2-dioxo-2,3-dihydro-1H-benzo[c]isothiazol-5-yl)-[1,6]naphthyridine-2-carboxylic acid methylamide] | < 10
Cn1cc(-c2ccc(-c3cncc4ccc(O)nc34)cc2)cn1 [Compound 79, 8-(4-(1-methyl-1H-pyrazol-4-yl)phenyl)-1,6-naphthyridin-2-ol] | 501 to 1000
Cn1cc(-c2ccc(-c3cncc4ccc(C(=O)N5CC(C)(F)C5)cc34)cc2)cn1 [Compound 186, (3-fluoro-3-methylazetidin-1-yl)(4-(4-(1-methyl-1H-pyrazol-4-yl)phenyl)isoquinolin-6-yl)methanone] | 10 to 100
Cc1cc2cncc(-c3ccc4c(c3)CS(=O)(=O)N4C)c2nc1C(=O)NC1CC1 [Compound 28, 3-Methyl-8-(1-methyl-2,2-dioxo-2,3-dihydro-1H-benzo[c]isothiazol-5-yl)-[1,6]naphthyridine-2-carboxylic acid cyclopropylamide] | < 10

From patent publication US20160016951A1 (Merck Patent GmbH, priority 2014, published 2016)
